Measured values reported in paper PMC10868801, “Characterization of covalent inhibitors that disrupt the interaction between the tandem SH2 domains of SYK and FCER1G phospho-ITAM” (PLOS ONE, 2024).
Values after ≈ are worked out from the molar mass of the structure shown. Read-outs that look alike come from different tables or passages of the source. Non-standard residues stand in square brackets, D forms with d. Residues, ends and D or L forms follow the SMILES beside them. Primed or numbered codes have the meaning given here. No end group written: not given here. pY = N[C@@H](Cc1ccc(OP(=O)(O)O)cc1)C(=O)O; FITC′ = not defined here

Experiments:
[1] = target: T1, SYK-tSH2 / FCER1G p-ITAM interaction (Homo sapiens, UniProt P43405); test: TR-FRET assay of 6xHis-SYK-tSH2 with FITC-labeled FCER1G p-ITAM peptide; format: biochemical
T1 construct: the tSH2 domain of SYK (residues M6-N269) fused to an N-terminal 6×His tag; made in house; host or cells: E. coli BL21(DE3)-R3-pRARE
From the text: To facilitate identification of inhibitors of the SYK-FCER1G interaction, we developed a TR-FRET assay using recombinant protein comprising the tSH2 domain of SYK (residues M6-N269) fused to an N-terminal 6×His tag (S1A Fig). The TR-FRET assay is based on the interaction of a FITC-labeled FCER1G p-ITAM peptide to the 6×His-SYK-tSH2 protein in complex with a terbium-conjugated anti-His antibody (Tb-Ab) (Fig 3B). Once excited, a TR-FRET signal is generated from the Tb donor to the FITC acceptor fluorophore. […] To enable uHTS for large scale screening of small molecule libraries, we miniaturized the TR-FRET assay from 96-well plate format to a 1536-well.
TR-FRET experiments were performed in 20 μL reactions, using 384-well shallow-well microplates (PerkinElmer). Final reaction components contained 6xHis-SYK-tSH2 (SYKA-c020 tagged) (4 nM), FITC-conjugated FCER1G peptide (8 nM), Tb-conjugated anti-6xHis antibody (53 ng/ml; Cisbio) in assay buffer containing 25 mM HEPES (pH 7.5), 200 mM NaCl, 0.1% BSA and 0.05% Tween-20. After a 2h incubation (at room temperature), TR-FRET signals were measured on a BMG Labtech PHERAstar FSX reader using a Lanthascreen Optics Module. A 200 μs delay was used after excitation with a flash lamp before measurement of fluorescence emission at […]. TR-FRET ratios of fluorescent intensity at 520 nm to 490 nm were calculated. The half maximal inhibitory concentration (IC50) was determined by fitting a four parametric logistic curve to the data.

[2] = target: T2, full length SYK and FCER1G (Homo sapiens, UniProt P43405); test: GST pull-down (GST-PD) of GST-SYK and FCER1G-Flag from HEK293T cell lysates; format: biochemical; settings: for PPI disruption in GST-PD: dose-response format; for Inhibition of SYK-GST / FCER1G-Flag interaction in pulldown: single concentration (100 μM)
T2 construct: full length GST-SYK and FCER1G-Flag were co-expressed in HEK293 cells prior to lysis; expressed in transfected cells; host or cells: HEK293T (CRL-3216, ATCC)
Experimental: Pull-down assays were used as an orthogonal assay to determine if the compounds could disrupt the PPI between full length SYK and FCER1G proteins from cell lysates. To optimize GST pulldown assays, full length GST-SYK and FCER1G-Flag were co-expressed in HEK293 cells prior to lysis and the protein expression and cell lysate concentrations tested (Fig 4A). All 40 compounds that progressed from uHTS were tested via GST-PD at a single concentration (100 μM) to determine if they could inhibit the PPI between the full-length proteins, with the p-ITAM FCER1G peptide used as a positive control (Fig 4B). […] Compound 24 contains a promiscuous maleimide, which is well known to react indiscriminately with proteins.
GST-, VF-tagged human SYK and FCER1G plasmids for mammalian expression were generated using Gateway cloning technology (Invitrogen) as described previously. The DNA was purified using ZymoPURE Plasmid Maxiprep Kit (D4203, Zymo Research).
WB secondary antibodies: peroxidase-conjugated AffiniPure Goat Anti-Mouse IgG (H+L) (115-035-003, Jackson Immuno Research) 1:5000 dilution in TBST. GST pulldown was performed as described with minor changes. HEK293T (CRL-3216, ATCC) were cultured in Dulbecco’s modified Eagle’s medium with 4.5 g/L glucose, L-glutamine, and sodium pyruvate (10–013-CV, Corning) supplemented with 10% fetal bovine serum and 1% penicillin/streptomycin solution (30–002-CI, CellGro). Cells were incubated at 37°C in humidified conditions with 5% CO2. The HEK293T cells were transfected using 1 mg/mL Polyethylenimine (PEI; 23966, Polysciences) in a ratio of 3 μL to 1 μg DNA. The proteins were expressed for 48 h at 37°C. Cell pellets were re-suspended in the SYK lysis buffer (25 mM HEPES, pH 7.5, 200 mM NaCl, 0.5% Triton X100 (T9284-1L, Sigma-Aldrich), followed by sonication for 10 s (5 s on, 5 s off) at 4°C. Cells were pelleted by 10 min centrifugation at 13,000 rpm at 4°C. The cleared lysates were first pre-incubated with compounds for 30 min and then incubated with glutathione sepharose 4B beads (17075605, Cytiva Sweden AB) at 4°C for 2 h with rotation. After the incubation, beads were washed three times with the SYK lysis buffer, eluted by boiling in sodium dodecyl sulfate-polyacrylamide gel electrophoresis (SDS–PAGE) loading buffer (1610737, Bio-Rad), and analyzed by western blotting.

[3] = target: 6xHis-SYK-tSH2 (tandem SH2 domains of human SYK, residues M6-N269, SYKA-c020 tagged) (human) (UniProt P43405); test: AlphaScreen or HTRF; TR-FRET competition: 6xHis-SYK-tSH2 4 nM with Tb-conjugated anti-6xHis antibody, FITC-conjugated FCER1G peptide 8 nM, unlabeled peptide titrated; 25 mM HEPES pH 7.5, 200 mM NaCl, 0.1% BSA, 0.05% Tween-20; 2 h at room temperature
SYK-tSH2 [4] = target: T3, SYK-tSH2 (Homo sapiens, UniProt P43405); test: Covalent labelling and intact mass spectrometry; format: binding; set-up: tandem SH2 domains of human SYK (residues M6-N269); 6xHis (N, cleaved yes); made in house; host or cells: E. coli BL21(DE3)-R3-pRARE; settings: 100 μM, 1 h; for Number of mass adducts on SYK-tSH2: room temperature
From the text: The HTS hits 13 and 37 contain a kojic acid moiety, which is proposed to react covalently with proteins in the literature. As a result, we thought that it was likely these compounds are also reacting covalently with SYK-tSH2. […] When bound to the protein, these kojic acid-derived compounds have a 94 Da decrease in mass due to the loss of the pyridin-2-amine leaving group to reveal a Michael acceptor that can react covalently with cysteine residues (Fig 5B).
To expand on the initial 40 putative hits that were identified via uHTS (Fig 3D), additional commercially available structural analogues were ordered and screened via TR-FRET and differential scanning fluorimetry (DSF) (S1 Table). […] The observation of a substantial reduction in protein melting temperature motivated us to determine if the compounds interacted covalently with the SYK-tSH2 domains. Additionally, since the thiourea in these small molecules is reported to react via oxidation, the compounds could be capable of forming a covalent disulfide bond with cysteine residues on SYK [39]. We used compound 1, which is a known covalent modifier of SYK-tSH2, as a positive control in the mass spectrometry analysis. […] Literature reports support that this type of chemical reaction can occur in DMSO, forming a disulfide bond. […] Like we had originally observed for the older DMSO stock solution of 42 (Fig 6C), 44 forms two to four mass adducts (422 Da and 844 Da) more than the protein mass when incubated SYK-tSH2 for 1 h (Fig 6D). […] Due to the mass adducts of two to four (422 Da and 844 Da), we propose that 44 is forming a disulfide bond with between two or four cysteines on SYK-tSH2 (Fig 6G).

MSN = MSN (Homo sapiens, UniProt P26038); test: Covalent labelling and intact mass spectrometry (selectivity); settings: 100 μM, 1 h, room temperature; four available cysteines
[5] = Compound solubility with nephelometer; format: physicochemical; settings: aqueous buffer, kinetic from dmso stock, PBS, 90 min at room temperature
Experimental: Stock compound (10 mM in DMSO) was serial diluted in PBS (21-040-CV, Corning) in 96-well Costar Assay plate (3904, Corning). After incubating compound in PBS for 90 min at room temperature, the Nephelometric turbidity units (NTUs) were measured with NEPHELOstar (BMG LABTECH, Cary, North Carolina). 0.2 s was used for a measure time and PBS only as the background. Each sample was tested in triplicate. Dose-response data was analyzed by GraphPad Prism and the solubility concentration is defined at the concentration that increases the NTUs at the turning point of the curve.

[6] = LCMS characterization of fresh versus older DMSO stocks; format: physicochemical; settings: older DMSO stocks versus freshly prepared solutions
From the text: To expand on the initial 40 putative hits that were identified via uHTS (Fig 3D), additional commercially available structural analogues were ordered and screened via TR-FRET and differential scanning fluorimetry (DSF) (S1 Table). […] The observation of a substantial reduction in protein melting temperature motivated us to determine if the compounds interacted covalently with the SYK-tSH2 domains. Additionally, since the thiourea in these small molecules is reported to react via oxidation, the compounds could be capable of forming a covalent disulfide bond with cysteine residues on SYK [39]. We used compound 1, which is a known covalent modifier of SYK-tSH2, as a positive control in the mass spectrometry analysis. […] Literature reports support that this type of chemical reaction can occur in DMSO, forming a disulfide bond. […]
Supplementary file pone.0293548.s005.tiff: S4 Fig Identification of active disulfide compounds which form in DMSO solutions of compounds 42 and 43. […] LCMS Calculated for [M+H]^+ C7H9N4O2S: 213.04; observed: 213.1 [M+H]^+. […] LCMS Calculated for [M+H]^+ C14H15N8O4S2: 423.06; observed: 423.0 [M+H]^+. […] LCMS Calculated for [M+H]^+ C10H15N4O2S: 255.08; observed: 255.1 [M+H]^+. […] LCMS Calculated for [M+H]^+ C20H27N8O4S2: 507.15; observed: 507.1 [M+H]^+. […]

SYK-tSH2 [7] = target: T3, SYK-tSH2; test: Bio-layer interferometry (BLI) direct binding; settings: biotinylated SYK-tSH2
Tg Tau P301S mice = settings: cited from earlier work
SH-SY5Y cells = system: SH-SY5Y cells; set-up: method as in PMID 31324720; settings: 5 μM, cited from earlier work
[8] = system: primary neuron-glia cultures; set-up: method as in PMID 37009452; settings: cited from earlier work
[9] = competition of FITC-labeled FCER1G p-ITAM peptide by unlabeled peptide

Sequence of MSN (P26038 whole entry, species assumed): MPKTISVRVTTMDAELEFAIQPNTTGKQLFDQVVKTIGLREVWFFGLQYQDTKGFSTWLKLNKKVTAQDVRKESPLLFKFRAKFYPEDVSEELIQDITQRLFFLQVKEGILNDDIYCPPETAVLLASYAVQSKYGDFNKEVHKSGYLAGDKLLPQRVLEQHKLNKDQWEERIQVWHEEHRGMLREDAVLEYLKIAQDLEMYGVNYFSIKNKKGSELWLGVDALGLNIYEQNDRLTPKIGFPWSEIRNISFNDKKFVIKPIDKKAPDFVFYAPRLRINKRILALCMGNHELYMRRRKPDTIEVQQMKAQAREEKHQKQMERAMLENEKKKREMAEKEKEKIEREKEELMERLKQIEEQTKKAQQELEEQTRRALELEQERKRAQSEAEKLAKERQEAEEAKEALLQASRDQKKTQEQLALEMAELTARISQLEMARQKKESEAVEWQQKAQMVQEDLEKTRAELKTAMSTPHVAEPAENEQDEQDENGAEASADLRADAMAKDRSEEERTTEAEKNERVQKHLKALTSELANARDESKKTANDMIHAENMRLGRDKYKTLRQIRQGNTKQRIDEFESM

## CC(C)C[C@H](NC(=O)CNC(=O)[C@@H](NC(=O)[C@H](Cc1ccc(OP(=O)(O)O)cc1)NC(=O)[C@@H](NC(=O)CNC(=O)[C@@H](N)CC(=O)O)C(C)C)[C@@H](C)O)C(=O)N[C@@H](CO)C(=O)N[C@H](C(=O)N[C@@H](CCCNC(=N)N)C(=O)N[C@@H](CC(N)=O)C(=O)N[C@@H](CCC(N)=O)C(=O)N[C@@H](CCC(=O)O)C(=O)N[C@H](C(=O)N[C@@H](Cc1ccc(OP(=O)(O)O)cc1)C(=O)N[C@@H](CCC(=O)O)C(=O)N[C@H](C(=O)N[C@@H](CC(C)C)C(=O)N[C@@H](CCCCN)C(=O)N[C@@H](Cc1c[nH]cn1)C(=O)O)[C@@H](C)O)[C@@H](C)O)[C@@H](C)O [FCER1G p-ITAM peptide] (H-DGV[pY]TGLSTRNQET[pY]ETLKH-OH)
[1]; [9]
  IC50: 12 nM

## O=C1C=CC(=O)N1c1ccc(Sc2ccc(N3C(=O)C=CC3=O)cc2)cc1 [compound 24]
[2]
  PPI disruption in GST-PD: confirmed to disrupt the PPI
  Inhibition of SYK-GST / FCER1G-Flag interaction in pulldown: able to inhibit the interaction

## FCER1G-phospho-ITAM[62–81] (peptide)
[3]
  IC50: 12 nM

## O=c1cc(CO)oc(C(Nc2ccccn2)c2ccc3c(c2)OCO3)c1O (stereo not drawn) [compound 37]
SYK-tSH2 [4]
  Number of mass adducts on SYK-tSH2: between two and seven
MSN
  Number of mass adducts on MSN: one weak mass adduct
[2]
  PPI disruption in GST-PD: confirmed to disrupt the PPI
  Inhibition of SYK-GST / FCER1G-Flag interaction in pulldown: able to inhibit the interaction
[5]
  solubility at 90 min: 100 µM (≈ 36.8 µg/mL)

## CC(C)n1c(S)nc2c1c(=O)n(C)c(=O)n2C [compound 43]
SYK-tSH2 [4]; older DMSO stock solutions
  Covalent modification of SYK-tSH2: did not demonstrate covalent attachment
[1]
  IC50: 3000 ± 1700 nM
[6]
  Stability in DMSO stock solution: had formed corresponding disulfide dimers in DMSO over time
SYK-tSH2 [7]
  BLI KD: did not bind
SYK-tSH2 [7]; read-out: BLI KD
  Kd: > 100000 nM

## O=c1cc(CO)oc(C(Nc2ccccn2)c2ccc(F)cc2)c1O (stereo not drawn) [compound 13]
SYK-tSH2 [4]
  Number of mass adducts on SYK-tSH2: between one and five
MSN
  Number of mass adducts on MSN: one weak mass adduct
[2]
  PPI disruption in GST-PD: confirmed to disrupt the PPI
  Inhibition of SYK-GST / FCER1G-Flag interaction in pulldown: able to inhibit the interaction
[5]
  solubility at 90 min: 100 µM (≈ 34.2 µg/mL)

## non-phosphorylated FCER1G ITAM peptide: non-phosphorylated FCER1G ITAM peptide used as control (DGVYTGLSTRNQETYETLKH-{FITC′})
[1]; [9]
  IC50: > 1000 nM

## FCER1G-nonphospho-ITAM[62–81]-FITC (peptide)
[3]
  IC50: > 1000 nM

## COc1ccc(-c2cc3nccn3c(Nc3ncccc3C(N)=O)n2)cc1OC.Cl.Cl [BAY61-3606, 2-[7-(3,4-Dimethoxyphenyl)-imidazo[1,2-c]pyrimidin-5-ylamino]nicotinamide Dihydrochloride]
Tg Tau P301S mice; Tg Tau P301S mice, 20 mg/kg, 12 weeks
  Levels of phospho-tau and total tau: reduced levels of phospho-tau (p-tau) and total tau (t-tau)
Tg Tau P301S mice; mouse tauopathy models
  Effect in mouse tauopathy models: decreased tau accumulation, neuronal and synaptic loss, neuroinflammation, and reversed defective autophagy
SH-SY5Y cells
  p-AKT, p-mTOR and p-p70 S6K levels: reduces p-AKT, p-mTOR, and p-p70 S6K levels
SH-SY5Y cells; in vitro
  Phosphorylated and total tau levels: reduces phosphorylated and total tau levels
[8]
  Microglial-mediated phagocytosis of synapses and neurons: reduced microglial-mediated phagocytosis of synapses and neurons
[8]; primary neuron-glia cultures
  LPS-induced neuronal loss: prevented lipopolysaccharide (LPS)-induced neuronal loss
